Reference: patent US11510886B2, “Metformin amino acid compounds and methods of using the same” (Laboratorios Silancs S.A. DE C.V., priority 2016, dated 2022)
Entries after “also recorded” stand apart in the source; their conditions may differ. Where a name gives a salt, the structure may show the parent alone. Read-outs that look alike come from different tables or passages of the source.

Experiments:
C2C12 myotubes = test: Glucose in C2C12 myotubes cultured with M1 macrophage conditioned medium; format: cell-based, Mice; conditions: macrophages treated with 10 mM, glucose adjusted to 100 mg/100 mL (FIG. 95)
Method: FIG. 95. C2C12 myotubes, treated with a conditioned RAW264.7 M1 macrophages medium (stimulated with LPS and IFN-γ [M1]), accumulate glucose in the culture medium: SLN compounds reduce the “hyperglycemic” effect of the M1 medium. […]; then, the culture media were collected, and their glucose concentration adjusted to 100 mg/100 mL and used to culture C2C12 myoblasts that had been previously differentiated to myotubes in DMEM supplemented with 2% horse serum for 5 days. The glucose concentration in myotubes was determined at several times with a Glucocard (Arkray). C2C12 myotubes, cultured with conditioned media of non-stimulated (cells) macrophages, or similarly stimulated but not treated with a SLN (M1), were used as controls. The initial glucose levels (time 0) are used as a reference (100%) in each of the series.
[…]. Then the culture media were collected, their glucose concentration adjusted to 100 mg/100 mL and used to culture C2C12 myoblasts that had been previously differentiated to myotubes in DMEM supplemented with 2% horse serum for 5 days. The glucose concentration of the myotube cultures was determined at different times with Glucocard (Arkray). The controls used were the C2C12 cultured with media conditioned with no stimulated macrophages (cells) or with M1 conditioned media. The initial glucose levels (time 0) were used as a reference (100%) in each series.

LKB1 and GPBP = LKB1 and GPBP distribution in C2C12 myotubes (confocal microscopy); format: cell-based, Mice; conditions: 10 mM, 3 hours (FIG. 71)
Method: FIG. 71. […] C2C12 cells were differentiated to myotubes for 5 days by incubation in DMEM medium, supplemented with 2% horse serum; […]. Cells were washed with PBS (3×5 minutes) and incubated with antibodies against mouse IgG, conjugated with Alexa Fluor 488, and against goat IgG, conjugated with Alexa Fluor 546 (Molecular Probes) for 1 hour at RM in the dark. In this and in the following Figures showing confocal microscopy of cell cultures, all antibodies used were diluted in blocking solution. After incubation with antibodies, cells were washed with PBS (3×5 minutes) and mounting medium (Dako) in glass slides. Preparations were visualized with confocal microscopy and obtained images were analyzed with the WCIF ImageJ software as to detect colocalization points between GPBP and LKB1. GPBP appears in green, LKB1 in red, and colocalization points indicating similar and corresponding expression levels in both proteins appear in white.

GLUT4 = test: GLUT4-GFP transport to plasma membrane in NIH-3T3-L1 adipocytes; format: cell-based, Mice; conditions: confocal microscopy (FIG. 75)
Method: FIG. 75. […] NIH-3T3-L1 cells were transfected with a construction expressing GLUT4 fused with Green Fluorescent Protein-GFP (Addgene). Transfected cells were selected by flow cytometry, taking advantage of GFP fluorescence, and cultured in DMEM supplemented with 10% FBS. […] Images were analyzed with the WCIF ImageJ software to detect colocalization of GPBP (red) with GLUT4 (green). […].

RAW264.7 macrophages [1] = test: IL-10 expression in RAW264.7 macrophages stimulated with LPS and IFN-γ; format: cell-based
Method: FIG. 92. […]. After several incubation times, cells were processed as shown in FIG. 79 for RT-qPCR analysis, and IL-10 relative quantification (RQ) was determined with a specific probe (Taqman®, Life Technologies) using HPRT-1 as a normalizer and non-stimulated cells as a reference point (time 0). In the Table in FIG. 92, the area under the curve (AUC) is indicated for each of the series.
FIG. 93. The IL-10 expression depends on GPBP-1. […]. […] The silencing efficacy was tested by Western blot with RAW264.7 (WT) and pSi-GPBP-1 cell lysates (50 μg), using specific antibodies (right).
(§1) FIG. 94. The IL-10 expression depends on cGPBP-1. In A, an assay scheme is shown; […]. […] In B, the relative expression of IL-10 in RAW264.7 macrophages cultured with conditioned media, obtained as specified in A, is shown. The analysis was carried out by quantitative RT and PCR, using HPRT-1 as a normalizer. In this case, the reference point were cells treated with a conditioned medium in absence of N26 (RQ=1 value), and the increased IL-10 expression was verified; the analysis included non-stimulated cells cultured in a fresh, non-conditioned medium (cells).

RAW264.7 macrophages [2] = test: GPBP secretion by RAW264.7 macrophages stimulated with LPS and IFN-γ (ELISA); format: cell-based
Method: as §1, with “FIG. 91. […]. FIG.” for “FIG.”, “[…].” for “The IL-10 expression depends on cGPBP-1.”
[…]; then, they were stimulated with LPS (0.5 μg/mL) and IFN-γ (20 ng/mL) for 16 hours, after which the GPBP concentration in culture media was determined by ELISA.
FIG. 104. […]. RAW264.7 cells (control cells) were treated as indicated (10 mM) for 2 hours and subsequently stimulated with LPS (0.5 μg/mL) and IFN-γ (20 ng/mL) for 16 hours; […].
FIG. 105. […]. then, the GPBP concentration in culture media was determined by ELISA.

[3] = system: rat model of streptozotocin-induced diabetes; test: Blood glucose levels in rat model of streptozotocin-induced diabetes, 14 days oral; conditions: mean ± SD; for Blood glucose levels before TI/RI administration, Day −3 (before STZ administration): rats, baseline before STZ and before first TI/RI administration
Method: For this purpose, animals were treated with streptozotocin to induce diabetes prior to group distribution. Control animals were treated with vehicle.
On day −3, 43 animals (36 to be used in the study and γ extra) were intravenously administered with streptozotocin (STZ, 60 mg/kg) to induce diabetes. Control animals (3) were intravenously administered with vehicle. […] On the same day, animals fulfilling the diabetic condition and with an acceptable health status were assigned to one of twelve groups (B to M) by means of the weight stratification method.
TI/RI administration regimen started approximately 72 hours after diabetes induction (day 1) and was performed at the same hour of the day throughout the entire study. […] Reference item and metformin compounds were administered at the same dose referred as base (250 mg/kg). A correction factor referred to metformin compound was applied for each test item to make sure that all animals received the same amount of metformin.
Blood glucose levels were measured before STZ administration (day −3), 24, and 48 hours after induction of diabetes (day −2 and day −1) and then twice daily until the end of the study, once approximately 1 hour before dosing and again approximately 2 hours after administration of TI/RI. Blood glucose levels were determined using reactive strips and a glucometer, after tail-vein puncture. Approximately 24 hours after last administration (day 15), overnight-fasted animals were sacrificed by CO2 overdose. Before sacrifice, animals were anaesthetized with isoflurane and blood from all animals was collected in lithium heparin tubes through the retro-orbital sinus puncture procedure. Plasma was extracted and triglycerides, total cholesterol and glucose levels were determined. Additionally, a gross necropsy was performed in all animals. Organs showing gross abnormalities were collected and preserved in 4% formaldehyde.
Blood glucose was determined using a drop of blood collected from tail vein puncture that was directly placed on a reactive strip inserted into a glucometer (ACCU-Check AVIVA, Roche). Blood glucose was determined before STZ administration (day −3), approximately 24 and 48 hours after diabetes induction (day −2 and −1), and twice daily thereafter until the end of the study period, once approximately 1 hour before administration of TI/RI and again approximately 2 hours after administration. Blood glucose measurements were performed at the same time of the day.
As a consequence the following statistical comparisons were not performed: • Basal blood glucose levels (i.e. before administration of TI/RI) vs basal blood glucose levels from diabetic control group (B). • Basal blood glucose levels vs basal blood glucose levels from diabetic animals treated with RI (group C). • Blood glucose levels differential (i.e. blood glucose level after administration subtracted from blood glucose level before administration) vs blood glucose levels differential from diabetic control group (B). • Blood glucose levels differential vs blood glucose levels differential from diabetic animals treated with RI (group C).
On the other hand, when upper glucometer detection limit allowed quantitative values, the following statistical comparisons were made (in the case the experimental group contained one value beyond the glucometer limit, this value was excluded from mean and SD calculation): • Blood glucose levels after administration vs blood glucose levels from diabetic control group (B). • Blood glucose levels after administration vs blood glucose levels from diabetic animals treated with RI (group C).

## CN(C)C(=N)N=C(N)N [Metformin hydrochloride, metformin hydrochloride, reference compound]
C2C12 myotubes; listed as SLN1, hydrochloride
  glucose concentration in myotubes kept in M1 macrophage-conditioned medium: slowed progression towards “hyperglycemia”
C2C12 myotubes; listed as metformin HCl, hydrochloride
  glucose concentration in myotubes kept in M1 macrophage-conditioned medium: slowed down the progression towards hyperglycemia
LKB1 and GPBP
  distribution of LKB1-GPBP aggregates: moved LKB1-GPBP aggregates from peripheral positions to areas around the nuclei
GLUT4
  distribution of GPBP and GLUT4 in L1 adipocytes: low presence in secretory vesicles
rat, in vivo, 250 mg/kg
  Body weight (g) On administration day: 190.39 ± 9.88 g
  Body weight (g) On distribution day: 186.93 ± 10.39 g
rat, in vivo, 750 mg/kg
  Body weight (g) On distribution day: 189.03 ± 15.13 g
RAW264.7 macrophages [1]; 10 mM, LPS and IFN-γ (FIG. 92)
  IL-10 expression: increase IL-10 expression
RAW264.7 macrophages [1]; pSi-GPBP-1 macrophages (FIG. 93)
  dependence of IL-10 expression on GPBP expression: virtually GPBP independent
RAW264.7 macrophages [2]; 10 mM, LPS 0.5 μg/mL and IFN-γ 20 ng/mL (FIG. 91)
  GPBP secretion: did not induce significantly the secretion of GPBP
[3]
  Blood glucose levels before TI/RI administration, Day −3 (before STZ administration): 120.00 ± 8.72 mg/dL

## metformin lysinate
C2C12 myotubes
  glucose concentration in myotubes kept in M1 macrophage-conditioned medium: reduced the glucose concentration to hypoglycemic levels
C2C12 myotubes; listed as SLN10
  glucose concentration in myotubes kept in M1 macrophage-conditioned medium: took them to “hypoglycemic” levels
LKB1 and GPBP; listed as SLN10
  distribution of LKB1-GPBP aggregates: seems to induce decolocalization in GPBP and LKB1; also recorded: delocalization of LKB1 and virtual absence of kinase in granular aggregates
GLUT4
  distribution of GPBP and GLUT4 in L1 adipocytes: widely located in the plasma membrane
750 mg/kg, fifth day, six hours after the glucose overload
  blood glucose level of animal ID93: 16 mg/dL
Groups B-K, 250 mg/kg, Mean ± SD
  Body weight (g) On administration day: 189.83 ± 11.17 g
Groups B-K, 250 mg/kg, before dosing, Mean ± SD
  Body weight (g) On distribution day: 184.42 ± 11.94 g
Groups L-U, 750 mg/kg, before dosing, Mean ± SD
  Body weight (g) On distribution day: 186.73 ± 8.05 g
Groups L-U, 750 mg/kg, first column of this head, Mean ± SD
  Body weight (g) On first administration day: 203.38 ± 13.38 g
Groups L-U, 750 mg/kg, second column of this head, Mean ± SD
  Body weight (g) On first administration day: 192.83 ± 9.65 g
Glucokinetic groups, 750 mg/kg for five days, 750 mg/kg
  mortality and clinical signs: hypothermia, lack of activity and tear excess
Glucokinetic groups, 750 mg/kg for five days, listed as metformin lysinate, 750 mg/kg
  mortality and clinical signs: severe hypoglycemia
Pharmacokinetic assay, single 250 mg/kg
  mortality and clinical signs: respiratory noises
RAW264.7 macrophages [1]
  IL-10 expression: increase IL-10 expression; also recorded: markedly superior
  dependence of IL-10 expression on GPBP expression: depended largely on the GPBP expression
RAW264.7 macrophages [2]
  GPBP secretion: induces cGPBP secretion; also recorded: induced GPBP secretion strongly
  biological activity (GPBP secretion) with equimolar MgCl2 or CaCl2: reduce the biological activity
  cGPBP levels in conditioned medium: approximately 200 ng/mL
[3]; STZ-diabetic rats, before first TI/RI administration, n.d. = all values beyond ULOD of glucometer (600 mg/dl), § n=1, ¢ n=2
  Blood glucose levels before TI/RI administration, Day −1: 577.00^§ ± n.d.^§ mg/dL
[3]
  Blood glucose levels before TI/RI administration, Day −3 (before STZ administration): 114.00 ± 6.93 mg/dL
